Here are results for ten compounds from the SangsterLogP compilation.

Each structure is given as a SMILES string.

A short description of this series: method code SF-HPLC, from DOI: 10.1002/jps.2600740210, PMID: 3989684. Conditions: pH 7.7.
For orientation: logD means the decadic logarithm of the distribution of all forms, ionised or not, between an organic phase and buffer at a given pH. On to `NS(=O)(=O)c1nc2ccc([N+](=O)[O-])cc2s1`, for which the pH-dependent lipophilicity (logD) came out at 0.9.
The figure for `NS(=O)(=O)c1nc2ccccc2s1` is 1.19; for `CCOc1ccc2nc(S(N)(=O)=O)sc2c1` it is 1.91; for `NS(=O)(=O)c1nc2ccc(O)cc2s1` it is 0.92.
Consider `NS(=O)(=O)c1nc2ccc(OCCO)cc2s1`, for which the log distribution coefficient (logD) worked out at 0.38.
In turn, `NS(=O)(=O)c1nc2ccc(Cl)cc2s1` showed a logD of 1.86.
Turning to `NS(=O)(=O)c1nc2ccc(OCc3ccccc3)cc2s1`, the logD came to 3.06.
In the case of `NS(=O)(=O)c1nc2c(Cl)cc(Cl)cc2s1`, the logD came out at 2.3.
The figure for `Nc1ccc2nc(S(N)(=O)=O)sc2c1` is 0.38; for `CC(=O)Nc1ccc2nc(S(N)(=O)=O)sc2c1` it is 0.68.
